# Data published in US10273290B2, “Hydrocarbon double-stapled stabilized HIV-1 GP41 heptad repeat domain peptides” (DANA-FARBER CANCER INSTITUTE, INC., priority 2009, dated 2019).
# Bridge positions count the residues as written; N and C are the ends. Square brackets hold non-standard residues; d marks the D form. Peptide text beside a SMILES is read from it. S5 = C=CCCC[C@](C)(N)C(=O)O; Nle = CCCC[C@H](N)C(=O)O
# Key:
# [1] = Circular dichroism, α-helical content; type: physicochemical; settings: comparative CD spectra, 20-mer residues 626-645
# How it was run: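 Far-UV CD spectra recorded at 20° C, 190-260 nm, 0.1 cm path, 10 accumulations. Percent α-helicity from mean residue ellipticity at 222 nm: 100×[θ]222/max[θ]222, with max[θ]222=−40,000×[1−(2.5/number of residues)]. Secondary-structure fractions also estimated by CDNN curve-fitting.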
# [2] = test system: HIV syncytia formation; assay: HIV syncytial formation assay; type: cell-based, HIV-1
# Method: Functional assays can be used to evaluate the activity of the antibodies produced. In culture, multinucleated giant cells or “syncytia” form as a result of direct cell-cell fusion between HIV-1-infected and uninfected CD4-positive cells. In the syncytia formation assay, an indicator cell line expressing the CD4 receptor, and a fusogenic cell line that lacks the CD4 receptor but contains HIV-1 proteins on the surface, fuse to generate 70-100 multinucleated giant cells in culture within 48 h. Syncytia are then counted using an inverted microscope. The ability of structured gp41 peptides or antibodies targeted thereto to inhibit syncytia formation in a dose-responsive fashion is used as a functional measure of fusion inhibition, for which IC50s can be determined and compared with peptides T20 and T649, or established neutralization antibodies (Brenner, T. J., et al. The Lancet, 1991. 337(8748): p. 1001-1005; Madani, N., et al., Journal of Virology, 2007. 81(2): p. 532-538).
# The truncated Stabilized Alpha Helix (SAH)-gp41 compound, SAH-gp41(626-645)(A), was successfully synthesized in high yield.
# [3] = test system: HIV-1 HXBc2; assay: HIV infectivity assay, HXBc2 strain; type: cell-based; settings: compared to T20
# From the text: Also the direct inhibitory activity of modified polypeptides and the antibodies targeted thereto can be quantified based upon their capacity to directly block HIV infection of CD4-positive and CCR5-expressing canine thymus cells. Recombinant HIV-1 viruses (eg. HXBc2, YU2, and additional strains available through the NIH AIDS Research and Reference Reagent Program) expressing firefly luciferase and containing the indicated envelope glycoproteins can be used to infect Cf2Th-CD4-CCR5/CXCR4 cells in the presence of serially diluted modified HIV-1 gp41 polypeptides or antibodies targeted thereto After 48 hours, the cells are lysed and luciferase activity is quantified (Si, Z. H., M. Cayabyab, and J. Sodroski, Journal of Virology, 2001. 75(9): p. 4208-4218 Si, Z. H., et al., PNAS, 2004. 101(14): p. 5036-5041). The identical experiment is performed with the amphotropic murine leukemia virus (AMLV), to monitor for any nonspecific effects of the modified polypeptides or antibodies. Similar control assays may be performed with unmodified or non-HIV polypeptides of the invention or control antibodies and are known in the art. […]
structure (smiles),measurement,setting,value
CCCC[C@H](NC(C)=O)C(=O)N[C@H](C(=O)N[C@@H](Cc1c[nH]c2ccccc12)C(=O)N[C@@]1(C)CCCC=CCCC[C@@](C)(C(=O)N[C@@H](CCC(=O)O)C(=O)N[C@H](C(=O)N[C@@H](CC(N)=O)C(=O)N[C@@H](CC(N)=O)C(=O)N[C@@H](Cc2ccc(O)cc2)C(=O)N[C@H](C(=O)N[C@@H](CO)C(=O)N[C@@H](CC(C)C)C(=O)N[C@H](C(=O)N[C@@H](Cc2c[nH]cn2)C(=O)N[C@@H](CO)C(=O)N[C@@H](CC(C)C)C(N)=O)[C@@H](C)CC)[C@@H](C)O)[C@@H](C)CC)NC(=O)[C@H](CC(=O)O)NC(=O)[C@H](Cc2c[nH]c3ccccc23)NC(=O)[C@H](CCC(=O)O)NC1=O)[C@@H](C)O [SAH-gp41(626-645)(A)] (Ac-[Nle]TW[S5]EWD[S5]EINNYTSLIHSL-NH2; staple 4-8; N-terminus assumed),α-helical content,[1],48%
same,"inhibitory activity in syncytial formation assay, in words",[2],markedly enhanced inhibitory activity
same,"anti-HXBc2 activity, in words",[3],significant anti-HXBc2 activity
